Source: US20100267561A1, “HERBICIDAL PYRIDAZINONE DERIVATIVES” (priority 2007, published 2010)

Assays:
Type in all cases: in vivo
[1] = system: barnyardgrass (Echinochloa crus-galli); test: Test A pre-/postemergence plant response
How it was run: (§1)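 Greenhouse pot test: loam–sand soil; pre- and postemergence sprays applied same day; post plants 2–10 cm, 1–2 leaves. Readout ~10 d, visual % injury vs untreated (0 = none, 100 = complete control).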

corn (Zea mays) = test: Test A pre-/postemergence plant response
How it was run: as §1

[2] = system: large crabgrass (Digitaria sanguinalis); test: Test A pre-/postemergence plant response
How it was run: as §1

[3] = system: morningglory (Ipomoea coccinea); test: Test A pre-/postemergence plant response
How it was run: as §1

[4] = system: pigweed (Amaranthus retroflexus); test: Test A pre-/postemergence plant response
How it was run: as §1

[5] = system: Italian ryegrass (Lolium multiflorum); test: Test B pre-/postemergence plant response; details: for Ryegrass, Italian plant response rating: 8 g ai/ha
How it was run: (§2)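 Visual scoring from 0 (no effect) to 100 (complete control) against untreated controls was done 13 to 15 days after greenhouse treatment. Chemicals were formulated in a surfactant-containing non-phytotoxic solvent and applied to soil preemergence or to 1- to 4-leaf (2-18 cm) plants postemergence.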

[6] = system: bermudagrass (Cynodon dactylon); test: Test B pre-/postemergence plant response; details: for Bermudagrass plant response rating: 8 g ai/ha
How it was run: as §2

[7] = system: johnsongrass (Sorghum halepense); test: Test B pre-/postemergence plant response; details: for Johnsongrass plant response rating: 8 g ai/ha
How it was run: as §2

[8] = system: canarygrass (Phalaris minor); test: Test B postemergence plant response; details: for Canarygrass plant response rating: 8 g ai/ha, postemergence, 0-100 scale; for Plant response rating, Canarygrass: Postemergence
How it was run: (§3)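 Visual injury ratings on a 0–100 scale, where 100 means complete control, were made 13 to 15 days after postemergence treatment of greenhouse-grown plants at the 1- to 4-leaf stage.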

[9] = system: chickweed (Stellaria media); test: Test B postemergence plant response; details: for Chickweed plant response rating: 8 g ai/ha, postemergence, 0-100 scale; for Plant response rating, Chickweed: Postemergence
How it was run: as §3

[10] = system: windgrass (Apera spica-venti); test: Test B postemergence plant response; details: for Windgrass plant response rating: 8 g ai/ha, postemergence, 0-100 scale; for Plant response rating, Windgrass: Postemergence
How it was run: as §3

[11] = system: winter barley (Hordeum vulgare); test: Test B postemergence plant response; details: for Barley plant response rating: 8 g ai/ha, postemergence, 0-100 scale; for Plant response rating, Barley: Postemergence, scale 0 to 100, 0 no effect, 100 complete control
How it was run: as §3

[12] = Postemergence, 31 g ai/ha, 0 to 100 scale, 0 no effect, 100 complete control
[13] = Postemergence, 125 g ai/ha, 0 to 100 scale, 0 no effect, 100 complete control
[14] = Preemergence, 31 g ai/ha, 0 to 100 scale, 0 is no effect, 100 is complete control
[15] = Preemergence, 125 g ai/ha, 0 to 100 scale (0 no effect, 100 complete control)
[16] = Postemergence, 16 g ai/ha, scale 0 to 100
[17] = Postemergence, 31 g ai/ha, scale 0 to 100
[18] = Postemergence, 62 g ai/ha, scale 0 to 100, 0 no effect, 100 complete control
[19] = 62 g ai/ha, scale 0 to 100, 0 no effect, 100 complete control
[20] = Postemergence, 31 g ai/ha, scale 0 to 100, 0 no effect, 100 complete control
[21] = Preemergence, 16 g ai/ha, scale 0 to 100 (0 no effect, 100 complete control)
[22] = Preemergence, 31 g ai/ha, 0 to 100 scale, 0 no effect, 100 complete control
[23] = Preemergence, 62 g ai/ha, scale 0 to 100
[24] = 31 g ai/ha, scale 0 to 100, 0 no effect, 100 complete control

Cc1nn(C)c(=O)c(-n2nc(-c3ccc(Cl)cc3)cc2Cl)c1O [Compound 59]
Plant response rating, Barnyardgrass [1, 12]: 90 | Plant response rating, Barnyardgrass [1, 13]: 100 | Plant response rating, Barnyardgrass [1, 14]: 90 | Plant response rating, Barnyardgrass [1, 15]: 100 | Plant response rating, Corn (corn (Zea mays); [12]): 30 | Plant response rating, Corn (corn (Zea mays); [13]): 70 | Plant response rating, Corn (corn (Zea mays); [14]): 0 | Plant response rating, Corn (corn (Zea mays); [15]): 60 | Plant response rating, Crabgrass, Large [2, 12]: 50 | Plant response rating, Crabgrass, Large [2, 13]: 90 | Plant response rating, Crabgrass, Large [2, 14]: 20 | Plant response rating, Crabgrass, Large [2, 15]: 50 | Plant response rating, Morningglory [3, 12]: 0 | Plant response rating, Morningglory [3, 13]: 0 | Plant response rating, Morningglory [3, 14]: 0 | Plant response rating, Morningglory [3, 15]: 0 | Plant response rating, Pigweed [4, 12]: 0 | Plant response rating, Pigweed [4, 13]: 0 | Plant response rating, Pigweed [4, 14]: 0 | Plant response rating, Pigweed [4, 15]: 0 | Ryegrass, Italian plant response rating ([5]; postemergence, 0-100 scale): 80 | Plant response rating, Ryegrass, Italian [5, 16]: 80 | Plant response rating, Ryegrass, Italian [5, 17]: 85 | Plant response rating, Ryegrass, Italian [5, 18]: 85 | Bermudagrass plant response rating ([6]; postemergence, 0-100 scale): 0 | Plant response rating, Bermudagrass [6, 16]: 0 | Plant response rating, Bermudagrass [6, 17]: 0 | Plant response rating, Bermudagrass [6, 18]: 20 | Johnsongrass plant response rating ([7]; postemergence, 0-100 scale): 0 | Plant response rating, Johnsongrass [7, 16]: 0 | Plant response rating, Johnsongrass [7, 17]: 60 | Plant response rating, Johnsongrass [7, 18]: 80 | Canarygrass plant response rating [8]: 0 | Plant response rating, Canarygrass ([8]; 16 g ai/ha, scale 0 to 100): 40 | Plant response rating, Canarygrass ([8]; 31 g ai/ha, scale 0 to 100): 55 | Plant response rating, Canarygrass [8, 19]: 70 | Chickweed plant response rating [9]: 0 | Plant response rating, Chickweed ([9]; 16 g ai/ha, scale 0 to 100): 0 | Plant response rating, Chickweed ([9]; 31 g ai/ha, scale 0 to 100): 0 | Plant response rating, Chickweed [9, 19]: 0 | Windgrass plant response rating [10]: 0 | Plant response rating, Windgrass ([10]; 16 g ai/ha, scale 0 to 100): 0 | Plant response rating, Windgrass ([10]; 31 g ai/ha, scale 0 to 100): 10 | Plant response rating, Windgrass [10, 19]: 50 | Barley plant response rating [11]: 0 | Plant response rating, Barley ([11]; 16 g ai/ha): 0 | Plant response rating, Barley ([11]; 31 g ai/ha): 20 | Plant response rating, Barley ([11]; 62 g ai/ha): 50

Cc1cc(-c2ccc(Cl)cc2)nn1-c1c(OS(=O)(=O)c2ccccc2)cnn(C)c1=O [Compound 35]
Plant response rating, Barnyardgrass [1, 12]: 60 | Plant response rating, Barnyardgrass [1, 13]: 90 | Plant response rating, Barnyardgrass [1, 14]: 80 | Plant response rating, Barnyardgrass [1, 15]: 100 | Plant response rating, Corn (corn (Zea mays); [12]): 0 | Plant response rating, Corn (corn (Zea mays); [13]): 60 | Plant response rating, Corn (corn (Zea mays); [14]): 0 | Plant response rating, Corn (corn (Zea mays); [15]): 80 | Plant response rating, Crabgrass, Large [2, 12]: 40 | Plant response rating, Crabgrass, Large [2, 13]: 90 | Plant response rating, Crabgrass, Large [2, 14]: 90 | Plant response rating, Crabgrass, Large [2, 15]: 100 | Plant response rating, Morningglory [3, 12]: 0 | Plant response rating, Morningglory [3, 13]: 0 | Plant response rating, Morningglory [3, 14]: 0 | Plant response rating, Morningglory [3, 15]: 0 | Plant response rating, Pigweed [4, 12]: 0 | Plant response rating, Pigweed [4, 13]: 0 | Plant response rating, Pigweed [4, 14]: 0 | Plant response rating, Pigweed [4, 15]: 30 | Ryegrass, Italian plant response rating ([5]; postemergence, 0-100 scale): 40 | Plant response rating, Ryegrass, Italian [5, 16]: 40 | Plant response rating, Ryegrass, Italian [5, 20]: 90 | Plant response rating, Ryegrass, Italian [5, 18]: 98 | Plant response rating, Ryegrass, Italian [5, 21]: 100 | Plant response rating, Ryegrass, Italian [5, 22]: 100 | Plant response rating, Ryegrass, Italian [5, 23]: 100 | Ryegrass, Italian plant response rating ([5]; Preemergence, scale 0 to 100): 100 | Bermudagrass plant response rating ([6]; postemergence, 0-100 scale): 40 | Plant response rating, Bermudagrass [6, 16]: 65 | Plant response rating, Bermudagrass [6, 20]: 100 | Plant response rating, Bermudagrass [6, 18]: 100 | Bermudagrass plant response rating ([6]; Preemergence, scale 0 to 100 (0 no effect, 100 complete control)): 98 | Plant response rating, Bermudagrass [6, 21]: 98 | Plant response rating, Bermudagrass [6, 22]: 100 | Plant response rating, Bermudagrass [6, 23]: 100 | Johnsongrass plant response rating ([7]; postemergence, 0-100 scale): 0 | Plant response rating, Johnsongrass [7, 16]: 60 | Plant response rating, Johnsongrass [7, 20]: 95 | Plant response rating, Johnsongrass [7, 18]: 95 | Plant response rating, Johnsongrass [7, 21]: 80 | Plant response rating, Johnsongrass [7, 22]: 80 | Plant response rating, Johnsongrass [7, 23]: 80 | Johnsongrass plant response rating ([7]; Preemergence, scale 0 to 100): 45 | Canarygrass plant response rating [8]: 0 | Plant response rating, Canarygrass ([8]; 16 g ai/ha, scale 0 to 100): 0 | Plant response rating, Canarygrass [8, 24]: 5 | Plant response rating, Canarygrass [8, 19]: 45 | Chickweed plant response rating [9]: 0 | Plant response rating, Chickweed ([9]; 16 g ai/ha, scale 0 to 100): 0 | Plant response rating, Chickweed [9, 24]: 0 | Plant response rating, Chickweed [9, 19]: 0 | Windgrass plant response rating [10]: 0 | Plant response rating, Windgrass ([10]; 16 g ai/ha, scale 0 to 100): 0 | Plant response rating, Windgrass [10, 19]: 40 | Barley plant response rating [11]: 0 | Plant response rating, Barley ([11]; 16 g ai/ha): 0 | Plant response rating, Barley ([11]; 31 g ai/ha): 5 | Plant response rating, Barley ([11]; 62 g ai/ha): 35
